Laboratory results published in patent US4675390A, “2-deoxypentose derivatives” (Eli Lilly and Company, priority 1984, dated 1987).
In brackets after ≈: the same amount, converted by molar mass.

Key:
[1] = system: X-5563, a plasma cell myeloma; assay: antitumor activity against transplanted X-5563 plasma cell myeloma in mice; type: in vivo; settings: daily for 10 days with 3 day delay
Text: Compounds according to formula II above are also active against transplanted tumors in mice. Table II which follows gives the results of testing α-methyl 2-deoxy-3-phosphocholyl-5-n-hexadecyl-D-ribofuranoside against X-5563, a plasma cell myeloma. In the table, column 1 gives the dosage levels, column 2 toxic deaths, column 3, the percent tumor growth inhibition and column 4, the dosage schedule or regimen. Ten mice were given each dosage ip and a group of 20 mice used as controls.

[2] = system: CCRF-CEM cell line; assay: growth inhibition of human leukemic cells; type: cell-based; settings: read-out: IC50 (concentration giving 50% growth inhibition)
[3] = system: spontaneously hypertensive rats (SHR); assay: blood pressure lowering in spontaneously hypertensive rats (tailcuff method); type: in vivo; settings: 5 mg/kg subcutaneous, 3-5 hours
Text: Certain of the compounds of this invention are also active in lowering the blood pressure of spontaneously hypertensive rats (SHR). For example, β-methyl 2-deoxy-3-phosphocholyl-5-n-hexadecyl-D-ribofuranoside, when administered subcutaneously to SHR at various dose levels, produced the hypotensive effects set forth in Table III below.
*measured by tailcuff method

| SMILES | IC50 [2] [mg/L] | also measured |
| --- | --- | --- |
| CCCCCCCCCCCCCCCCOC[C@H]1O[C@H](OC)C[C@@H]1OP(=O)([O-])OCC[N+](C)(C)C [drawing 19 (R = MeO, R^1 = H), α-methyl 2-deoxy-3-phosphocholyl-5-n-hexadecyl-D-ribofuranoside] | 2.3 (≈ 4.28 µM) | Percent inhibition of Tumor growth ([1]; 25 mg/kg ip): 37%; Toxic deaths ([1]; 25 mg/kg ip): 0/10; Percent inhibition of Tumor growth ([1]; 50 mg/kg ip): 61%; Toxic deaths ([1]; 50 mg/kg ip): 2/10 |
| CCCCCCCCCCCCCCCCO[C@H]1CCO[C@@H]1COP(=O)([O-])OCC[N+](C)(C)C [drawing 20 (R = H, R^1 = H), 1,2-Dideoxy-3-n-hexadecyl-5-phosphocholyl-D-ribofuranose] | 3.4 (≈ 6.7 µM) | – |
| CCCCCCCCCCCCCCCCO[C@H]1C[C@H](OC)O[C@@H]1COP(=O)([O-])OCC[N+](C)(C)C [drawing 20 (R = H, R^1 = MeO), β-Methyl 2-deoxy-3-n-hexadecyl-5-phosphocholyl-D-ribofuranoside] | < 2.1 | – |
| CCCCCCCCCCCCCCCCO[C@H]1CC(=O)O[C@@H]1COP(=O)([O-])OCC[N+](C)(C)C [drawing 20 (R, R^1 = Carbonyl), 2-deoxy-3-n-hexadecyl-5-phosphocholyl-D-ribofuran-1-one] | 6.2 (≈ 11.9 µM) | – |
| CCCCCCCCCCCCCCCCO[C@H]1CC(O)O[C@@H]1COP(=O)([O-])OCC[N+](C)(C)C (stereo partly drawn) [drawing 20 (R = H(OH), R^1 = OH(H)), 2-Deoxy-3-n-hexadecyl-5-phosphocholyl-D-ribose] | 13.2 (≈ 25.2 µM) | – |
| CCCCCCCCCCCCCCCCOC[C@H]1OC(O)C[C@@H]1OP(=O)([O-])OCC[N+](C)(C)C (stereo partly drawn) [drawing 19 (R = H(OH), R^1 = OH(H)), 2-deoxy-3-phosphocholyl-5-n-hexadecyl-D-ribose] | 6.4 (≈ 12.2 µM) | – |
| CCCCCCCCCCCCCCCCOC[C@H]1O[C@@H](OC)C[C@@H]1OP(=O)([O-])OCC[N+](C)(C)C [drawing 19 (R = H, R^1 = MeO), β-methyl 2-deoxy-3-phosphocholyl-5-n-hexadecyl-D-ribofuranoside] | 6.2 (≈ 11.5 µM) | Heart Rate [3]: No effect; Blood pressure effect ([3]; tailcuff method): -20 mmHg |
| CCCCCCCCCCCCCCCCO[C@H]1C[C@@H](OC)O[C@@H]1COP(=O)([O-])OCC[N+](C)(C)C [drawing 20 (R = MeO, R^1 = H), Methyl 2-deoxy-3-n-hexadecyl-5-phosphocholyl-D-ribofuranoside] | 5.2 (≈ 9.67 µM) | – |
| CCCCCCCCCCCCCCCCOC[C@H]1OCC[C@@H]1OP(=O)([O-])OCC[N+](C)(C)C [drawing 19 (R = H, R^1 = H), 1,2-dideoxy-3-phosphocholyl-5-n-hexadecyl-D-ribofuranose] | 3.7 (≈ 7.29 µM) | – |
| CCCCCCCCCCCCCCCCOC[C@H]1O[C@H](OC)C[C@H]1OP(=O)([O-])OCC[N+](C)(C)C [drawing 21 (R = MeO, R^1 = H), α-Methyl 2-deoxy-3-phosphocholyl-5-n-hexadecyl-D-xylofuranoside] | 5.3 (≈ 9.86 µM) | – |
| CCCCCCCCCCCCCCCCOC[C@H]1OCC[C@H]1OP(=O)([O-])OCC[N+](C)(C)C [drawing 21 (R = H, R^1 = H), 1,2-dideoxy-3-phosphocholyl-5-n-hexadecyl-D-xylofuranose] | 6.2 (≈ 12.2 µM) | – |
